{"source": "patent US8282952B2", "about": "“Insect attractant” (Activetrad (Proprietary) Limited, priority 2007, dated 2012)", "key": {"[1]": {"tested_on": "Female medflies", "test": "Delta trap catches in temperature controlled room, released female medflies", "conditions": "for effect on medfly attraction when added to NATC 1%: Experiment 22"}, "[2]": {"tested_on": "Female medflies", "test": "Delta trap catches in orchards, released female medflies", "format": "in vivo, Ceratitis capitata"}}}
{"smiles": "Cc1cnc(C)c(C)n1", "note": "[2,3,5-Trimethyl pyrazine]", "values": [{"measurement": "effect on medfly attraction when added to NATC 1%", "setting": "[1]", "value": "suppressed medfly attraction"}]}
{"smiles": "COc1cccc(C(N)=O)c1", "note": "[3-Methoxy benzamide]", "values": [{"measurement": "effect on medfly attraction when added to NATC 1%", "setting": "[1]", "value": "suppressed medfly attraction"}]}
{"smiles": "CC(=O)OCC[N+](C)(C)C.[Cl-]", "note": "[Acetyl choline chloride]", "values": [{"measurement": "times more attractive than the tri-ethanolamine mixtures", "setting": "[1]; as amine in the NATC/amine/NH4Ac/Molasses mixture", "value": "about 3 times"}, {"measurement": "more medflies attracted than Choline chloride (number)", "setting": "[1]; in vivo", "value": 284.2}, {"measurement": "more medflies attracted than Choline chloride (percent)", "setting": "[1]; in vivo", "value": 93, "unit": "%"}]}
{"smiles": "CC(=O)O.N", "note": "[Ammonium acetate]", "values": [{"measurement": "attracting partner for the NATC-0.5%+TEA-0.5% combination compared with Maltol 0.5%", "setting": "[1]; in vivo", "value": "stronger attracting partner"}, {"measurement": "increase of trap catches by addition to the NATC-1%+TEA-1% mixture", "setting": "[1]; in vivo", "value": 272.5, "unit": "%"}]}
{"smiles": "CN(C)Cc1c[nH]c2ccccc12", "note": "[Gramine]", "values": [{"measurement": "effect on medfly attraction when added to NATC 1%", "setting": "[1]", "value": "suppressed medfly attraction"}]}
{"smiles": "CCOC(=O)CC(SP(=S)(OC)OC)C(=O)OCC", "note": "(centres unmarked) [Malathion]", "values": [{"measurement": "times more female medflies caught with poison than without it", "setting": "[2]; in vivo", "value": "~1.5", "unit": "times"}]}
{"smiles": "C=C(C)[C@H]1Cc2c(ccc3c2O[C@@H]2COc4cc(OC)c(OC)cc4[C@@H]2C3=O)O1", "note": "[Rotenone]", "values": [{"measurement": "effect of the bait poison combined with NATC in YP on female medfly trap catches", "setting": "[2]; Experiment 7, 0.5% poison added to NATC 1% in YP vs NATC 1% in YP alone", "value": "small differences"}]}
{"smiles": "CC(=O)O", "note": "[acetic acid]", "values": [{"measurement": "effect of addition on medfly trap catches with TEA", "setting": "[1]; Experiment 14, added to NATC + TEA", "value": "seems to decrease"}]}
